Numbers after ± are expanded uncertainties.
assay: refractive index (Na D-line) (dimensionless); settings: 293.15 K; 101.33 kPa; Liquid; Standard Abbe refractometry

Q: With `CC(=O)O` [acetic acid] as the molecule, how does the refractive index read?
A: 1.3719 ± 0.0007

Q: For `CC(=O)OC(C)C` [1-methylethyl ethanoate], which refractive index is on record?
A: 1.3772 ± 0.0008

Q: For `CCCCCOC(C)=O` [pentyl ethanoate], which refractive index is on record?
A: 1.4021 ± 0.0008

Q: Which refractive index does the source give for `O` [water] here?
A: 1.333 ± 0.0008

— the NIST ThermoML archive (doi:10.1021/je049711t)
